Data as given in patent US12173088B2, “Anti-microbial peptides” (priority 2018, dated 2024).
≈ marks a conversion by molar mass, not a printed value. Read-outs that look alike come from different tables or passages of the source. Square brackets hold non-standard residues; d marks the D form. Peptide text beside a SMILES is read from it.

Assays:
S. aureus M838-17 (MRSA) = experiment: microbe, parasite or virus in culture; format: cell-based, Staphylococcus aureus; settings: M838-17; read-out: MIC S. aureus M838-17 (MRSA)
How it was run: (§1)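 Broth microdilution: log-phase cultures in tryptic soy broth diluted to OD600 0.001, exposed to two-fold diluted peptides at 37° C overnight, growth read at 630 nm. Medium effects on S. aureus USA300 tested with up to 200 mM NaCl, 2 mM CaCl2, 5-10% human serum, mouse plasma, fluids or tissue homogenate supernatants.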

S. aureus USA300 [1] = experiment: microbe, parasite or virus in culture; format: cell-based, Staphylococcus aureus
How it was run: as §1

P. aeruginosa PAO1 = format: cell-based, Pseudomonas aeruginosa; settings: PAO1
How it was run: (§2)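 Broth microdilution in tryptic soy broth: log-phase cultures (OD600 ≈0.5) diluted to OD600 0.001, given two-fold peptide dilutions, incubated overnight at 37° C. Growth read at 630 nm.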

E. coli ATCC 25922 = format: cell-based, Escherichia coli; settings: ATCC 25922
How it was run: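 Broth microdilution: log-phase E. coli diluted to OD600 0.001 and exposed to two-fold serial peptide dilutions overnight at 37 °C. Growth read at 630 nm.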

Hemolytic assay = format: cell-based, human; settings: human, human red blood cells, 2% (v/v)
How it was run: (§3)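 Washed hRBCs (2% v/v) exposed to peptide for 1 h at 37 °C, then centrifuged and hemoglobin in supernatant read at 545 nm. Lysis normalized to Triton X-100 (2% or 1%; 100%) and PBS (0%); HL50 is the peptide concentration giving 50% lysis, and CSI is HL50/MIC.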

E. faecium V286-17 (VRE) = experiment: microbe, parasite or virus in culture; format: cell-based, Enterococcus faecium; settings: V286-17 (VRE); for MIC: read-out: MIC E. faecium V286-17 (VRE)
From the text: (§4) The bacterial strains used include the Gram-positive strains Staphylococcus aureus USA300 LAC, S. epidermidis 1457, and Bacillus subtilis 168, as well as the Gram-negative isolates Escherichia coli K12 and Acinetobacter baumannii B2367-12. Additional, drug resistance strains include Gram-positive Enterococcus faecium V286-17 (VRE) and S. aureus M838-17 (MRSA) and Gram-negative E. coli E423-17, E. coli E416-17 (ampC), and P. aeruginosa E411-17. Bacteria were cultivated in tryptic soy broth (TSB) (BD Bioscience, MD).
(§5) The antibacterial activity of peptides was evaluated using a standard broth microdilution protocol with minor modifications as described (Mishra, et al. (2012) J. Am. Chem. Soc., 134:12426-12429). In brief, logarithmic phase bacterial cultures (i.e., optical density at 600 nm≈0.5) were diluted to OD600 0.001 and partitioned into a 96-well polystyrene microplate at 90 μL per well. After treatment with 10 μL of peptide solutions two fold diluted to various concentrations, microplates were incubated at 37° C. overnight and read on a ChroMate® 4300 Microplate Reader at 630 nm (GMI, Ramsey, MN). […] To study the influence of medium conditions on the antimicrobial activity of peptides against S. aureus USA300, up to 200 mM sodium chloride (NaCl), 2 mM of calcium chloride, 5-10% of human serum, mouse plasma, fluid, or supernatants of tissue homogenates were included into the assays.
(§6) The bacterial strains used include the Gram-positive bacteria methicillin-resistant Staphylococcus aureus USA300, Enterococcus faecium V286-17 (VRE), S. aureus M838-17 (MRSA) and Gram-negative bacteria E. coli E423-17, E416-7 (ampC), P. aeruginosa E411-17, PA01, K. pneumoniae E406-17, ATCC13883, and A. baumannii B26-16. Bacteria were cultivated in tryptic soy broth (TSB) from BD Bioscience.
(§7) The antibacterial activity of peptides was evaluated using a standard broth microdilution protocol with minor modifications (Mishra, et al. (2017) Acta Biomater., 49:316-328). In brief, logarithmic phase bacterial cultures (i.e., optical density at 600 nm≈0.5) were diluted to 0.001 OD and aliquoted 90 μL per well into a 96-well polystyrene microplate. Added 10 μL peptides per well with various concentrations, plates were incubated at 37° C., overnight. Post incubation the plates are read at 630 nm using a ChroMate® Microplate Reader (GMI). […] To study the influence of medium conditions on the antimicrobial activity of peptides against S. aureus USA300 at different pHs (6.8, 7.2, and 8.0), 150 mM sodium chloride (NaCl), 5-10% of human serum, mouse plasma, and peritoneal fluid were included into the assays.

P. aeruginosa E411-17 = experiment: microbe, parasite or virus in culture; format: cell-based, Pseudomonas aeruginosa; settings: E411-17; read-out: MIC P. aeruginosa E411-17
From the text: as §4, §5, §6, §7

K. pneumoniae E406-17 = experiment: microbe, parasite or virus in culture; format: cell-based, Klebsiella pneumoniae; settings: E406-17; read-out: MIC K. pneumoniae E406-17
Experimental: as §5, §6, §7

E. coli ampC E416-7 = format: cell-based, Escherichia coli; settings: Table 7
From the text: as §4, §5

E. coli E423-17 = experiment: microbe, parasite or virus in culture; format: cell-based, Escherichia coli; settings: E423-17; read-out: MIC E. coli E423-17
From the text: as §4, §5, §6, §7

[2] = test system: human red blood cells (hRBCs); experiment: Hemolytic assay; format: cell-based
How it was run: as §3

K. pneumoniae ATCC 13883 = format: cell-based, Klebsiella pneumoniae; settings: ATCC 13883
How it was run: as §2

A. baumannii B26-16 = experiment: microbe, parasite or virus in culture; format: cell-based, Acinetobacter baumannii; settings: B26-16; read-out: MIC A. baumannii B26-16
Experimental: as §6, §7

S. aureus USA300 [3] = experiment: Propidium iodide membrane permeation; format: cell-based, Staphylococcus aureus
Experimental: The membrane permeation experiment was performed as described with minor modifications (Wang, et al. (2005) J. Biol. Chem., 280:5803-5811). Serially diluted 10× peptides (10 μL each well) were created in 96-well microtiter plates. Propidium iodide (2 μL) at a fixed concentration of 20 μM were added to each well followed by 88 μL of the S. aureus USA300 culture (a final OD600˜0.1 in TSB media). The plate was incubated at 37° C. with continuous shaking at 100 rpm in a FLUOstar® Omega (BMG LABTECH, Cary, NC) microplate reader. The fluorescence from the plate was read every 5 minutes for a total duration of 2 hours with an excitation and emission wavelengths of 584 nm and 620 nm, respectively. Plots were made using average values of duplicated experiments with MARS software.
The experiment was performed as described previously with minor modifications (Mishra, et al. (2017) Acta Biomater., 49:316-328). Serially diluted 10× peptides (10 μL each well) were created in 96-well microtiter plates. Propidium iodide (2 μL) at a fixed concentration of 20 μM were added to each well followed by 88 μL of the S. aureus USA300 culture (a final OD600˜0.1 in TSB media or PBS). The plate was incubated at 37° C. with continuous shaking at 100 rpm in a FLUOstar® Omega (BMG LABTECH) microplate reader. The samples fluorescence was read at every 5 minutes for 24 cycles with an excitation and emission wavelengths of 584 nm and 620 nm, respectively. Plots generated using average values from the experiments using GraphPad Prism.

in vivo = settings: BALB/c, mouse, plasma, iv, 10 mg/kg
Experimental: The efficacy of the two peptides was also investigated in non-neutropenic mice against S. aureus USA300. A higher bacterial inoculum at 2×10^8 CFU per mouse was used. […] To evaluate the peptide pharmacokinetics (Chhonker, et al. (2018) Biomed. Chromatogr. e4389), the plasma clearance rate of horine after intravenous injection of 10 mg/kg into BALB/c mice was followed.

[4] = USA300, read-out: MIC S. aureus USA300 (MRSA)

Compound | MIC (S. aureus M838-17 (MRSA)) [µM] | MIC (S. aureus USA300 [1]; 1 mM Ca2+) [µM] | MIC (S. aureus USA300 [1]; 2 mM Ca2+) [µM] | MIC (S. aureus USA300 [1]; 50 mM NaCl) [µM] | MIC (S. aureus USA300 [1]; 100 mM NaCl) [µM] | MIC (S. aureus USA300 [1]; No salts added, Table 6, by UV) [µM] | MIC (S. aureus USA300 [1]; USA300) [µM] | MIC SA (S. aureus USA300) (S. aureus USA300 [1]; USA300) [µM] | MIC (S. aureus USA300 [1]; USA300, pH 6.8) [µM] | MIC (S. aureus USA300 [1]; USA300, pH 7.4) [µM] | MIC (S. aureus USA300 [1]; USA300, pH 8) [µM] | MIC PA (P. aeruginosa PAO1) (P. aeruginosa PAO1) [µM] | MIC EC (E. coli ATCC 25922) (E. coli ATCC 25922) [µM] | HC50 at 1 h (Hemolytic assay) [µM] | MIC E. faecium V286-17 (VRE) (E. faecium V286-17 (VRE)) [µM] | MIC (P. aeruginosa E411-17) [µM] | MIC (K. pneumoniae E406-17) [µM] | MIC E. coli ampC E416-7 (E. coli ampC E416-7) [µM] | MIC (E. coli E423-17) [µM] | MIC (S. aureus USA300 [1]; [4]) [µM] | also measured
CC(C)C[C@@H](NC(=O)[C@@H](CC(C)C)NC(=O)[C@@H](CCCCN)NC(=O)[C@@H](CC(C)C)NC(=O)CNC(=O)[C@@H](CC(C)C)NC(=O)[C@@H](CO)NC(=O)[C@@H](CC(C)C)NC(=O)[C@@H](CC(C)C)NC(=O)[C@@H](CC(C)C)NC(=O)[C@@H](CO)NC(=O)[C@@H](CC(C)C)NC(=O)CN)C(N)=O [DFT503d, GLSLLLSLGLKLL] (H-G[dL][dS][dL][dL][dL][dS][dL]G[dL][dK][dL][dL]-NH2; N-terminus and C-terminus assumed) | 3.1 (≈ 4.15 µg/mL) | 1.56 (≈ 2.09 µg/mL) | 1.56 (≈ 2.09 µg/mL) | 1.56 (≈ 2.09 µg/mL) | 1.56 (≈ 2.09 µg/mL) | 1.56 | 3.1 (≈ 4.15 µg/mL) | 1.6 (≈ 2.14 µg/mL) | 3.1 (≈ 4.15 µg/mL) | 3.1 (≈ 4.15 µg/mL) | 1.6 (≈ 2.14 µg/mL) | >25 | >25 | > 300 | 3.1 to 6.25 | >50 | >50 | >50 | >50 |  | MIC (S. aureus USA300 [1]; 200 mM NaCl): 1.56 µM (≈ 2.09 µg/mL)
CC(C)C[C@H](NC(=O)[C@H](CC(C)C)NC(=O)[C@H](CCCCN)NC(=O)[C@H](CC(C)C)NC(=O)CNC(=O)[C@H](CC(C)C)NC(=O)[C@H](CO)NC(=O)[C@H](CC(C)C)NC(=O)[C@H](CC(C)C)NC(=O)[C@H](CC(C)C)NC(=O)[C@H](CO)NC(=O)[C@H](CC(C)C)NC(=O)CN)C(N)=O [DFT503, GLSLLLSLGLKLL] (H-GLSLLLSLGLKLL-NH2; N-terminus and C-terminus assumed) | 3.1 (≈ 4.15 µg/mL) | 1.56 (≈ 2.09 µg/mL) | 1.56 (≈ 2.09 µg/mL) | 1.56 to 3.1 | 1.56 to 3.1 | 1.56 | 3.1 (≈ 4.15 µg/mL) | 1.6 (≈ 2.14 µg/mL) | 3.1 (≈ 4.15 µg/mL) | 3.1 to 6.2 | 3.1 (≈ 4.15 µg/mL) | >25 | >25 | > 300 | 3.1 to 6.25 | >50 | >50 | >50 | >50 |  | HL50, peptide concentration for 50% hemolysis [2]: >300 µM
CC[C@H](C)[C@H](NC(=O)[C@H](CCCCN)NC(=O)[C@H](CCCNC(=N)N)NC(=O)[C@H](CC(C)C)NC(=O)[C@H](Cc1c[nH]c2ccccc12)NC(=O)[C@H](Cc1c[nH]c2ccccc12)NC(=O)[C@@H](N)Cc1c[nH]c2ccccc12)C(=O)N[C@@H](Cc1c[nH]c2ccccc12)C(N)=O [WW291, WWWLRKIW] (H-WWWLRKIW-NH2; N-terminus and C-terminus assumed) |  |  |  |  |  |  |  |  |  |  |  |  |  |  |  | >32 | ≥32 |  | 8 (≈ 10.2 µg/mL) | 4 (≈ 5.09 µg/mL) | MIC S. aureus USA 300 (S. aureus USA300 [1]; USA300): 3.1 µM (≈ 3.94 µg/mL); MIC E. coli ATCC 25922 (E. coli ATCC 25922): 6.2 to 12.5 µM; MIC K. pneumoniae ATCC 13883 (K. pneumoniae ATCC 13883): 12.5 µM (≈ 15.9 µg/mL); MIC (E. faecium V286-17 (VRE)): 4 µM (≈ 5.09 µg/mL); MIC (A. baumannii B26-16): 16 µM (≈ 20.4 µg/mL); Propidium iodide membrane permeation (S. aureus USA300 [3]): permeate bacterial membranes
CC(C)C[C@@H](NC(=O)[C@@H](Cc1c[nH]c2ccccc12)NC(=O)[C@@H](Cc1c[nH]c2ccccc12)NC(=O)[C@H](N)Cc1c[nH]c2ccccc12)C(=O)N[C@H](CCCNC(=N)N)C(=O)N[C@H](CCCNC(=N)N)C(=O)N[C@H](CCCNC(=N)N)C(=O)N[C@H](Cc1c[nH]c2ccccc12)C(N)=O [D-horine] (H-[dW][dW][dW][dL][dR][dR][dR][dW]-NH2; N-terminus and C-terminus assumed) |  |  |  |  |  |  |  |  |  |  |  |  |  |  |  | 32 (≈ 43 µg/mL) | >32 |  | 16 (≈ 21.5 µg/mL) | 4 (≈ 5.37 µg/mL) | MIC (E. faecium V286-17 (VRE)): 4 µM (≈ 5.37 µg/mL); MIC (A. baumannii B26-16): >32 µM; level at 5 min (in vivo): 192 µg/mL; level at 24 h (in vivo): 0.17 µg/mL
